Assays:
FepA = FepA (Escherichia coli, UniProt P05825); conditions: Thulasiraman et al., J Bacteriol. 1998; cited from earlier work
E. coli [1] = conditions: Thulasiraman et al., J Bacteriol. 1998; cited from earlier work
E. coli [2] = experiment: Bacteria detection by fluorescence in T media (probe uptake), E. coli; type: cell-based; conditions: dye not conjugated to an enterobactin analogue; control experiment (FIG. 28)
Procedure: Sample Processing for Bacteria Detection by Fluorescence in T Media Experiments with Bacteria Genus
• 1. Bacteria is prepared • a. Sub bacteria onto blood agar and incubate overnight • b. Select several colonies and grow overnight in LB media at 37° C. in room air on orbital shaker • c. 100 μl of overnight culture is placed into 100 ml T media, incubated for 5 hours (E. coli, Salmonella, A. baumannii, Klebsiella pneumoniae) or 10 hours (B. subtillus, S. aureus) • d. Quantitate using 1:10 dilution and plating 100 μl of dilutions onto blood agar • 2. Prepare the samples in 1.5 microcentrifuge tubes, vortex, in triplicate • a. For each bacteria • i. 1 ml bacteria+25 μl Tris • ii. 1 ml bacteria+25 μl Probe • b. For each run include controls • i. 1 ml T media+25 μl Tris • ii. […] 24+ hours count colonies on quantitative cultures
The effect of probe chemical structure on response can be seen in FIG. 28 in an increase in fluorescence intensity after incubation of E. coli with Ga-TREN-CAM-C2-OG (example 1), Ga-TREN-GlyCAM-GluCAM-OG (example 2), Ga-3,3-LiCAM-GluCAM-OG (example 4), Ga-2,2-LiCAM-GluCAM (example 5), and the non-targeted dye OREGON GREEN dye. […]
The effect of metal ion on probe uptake can be seen in FIG. 29 in anincrease in fluorescence intensity after incubation of E. coli with Ga-3,3-LiCAM-GluCAM-OG, Fe-3,3-LiCAM-GluCAM, the apo probe, 3,3-LiCAM-GluCAM-OG, and the non-target OREGON GREEN dye. […]

Sequence of FepA (P05825 23-746): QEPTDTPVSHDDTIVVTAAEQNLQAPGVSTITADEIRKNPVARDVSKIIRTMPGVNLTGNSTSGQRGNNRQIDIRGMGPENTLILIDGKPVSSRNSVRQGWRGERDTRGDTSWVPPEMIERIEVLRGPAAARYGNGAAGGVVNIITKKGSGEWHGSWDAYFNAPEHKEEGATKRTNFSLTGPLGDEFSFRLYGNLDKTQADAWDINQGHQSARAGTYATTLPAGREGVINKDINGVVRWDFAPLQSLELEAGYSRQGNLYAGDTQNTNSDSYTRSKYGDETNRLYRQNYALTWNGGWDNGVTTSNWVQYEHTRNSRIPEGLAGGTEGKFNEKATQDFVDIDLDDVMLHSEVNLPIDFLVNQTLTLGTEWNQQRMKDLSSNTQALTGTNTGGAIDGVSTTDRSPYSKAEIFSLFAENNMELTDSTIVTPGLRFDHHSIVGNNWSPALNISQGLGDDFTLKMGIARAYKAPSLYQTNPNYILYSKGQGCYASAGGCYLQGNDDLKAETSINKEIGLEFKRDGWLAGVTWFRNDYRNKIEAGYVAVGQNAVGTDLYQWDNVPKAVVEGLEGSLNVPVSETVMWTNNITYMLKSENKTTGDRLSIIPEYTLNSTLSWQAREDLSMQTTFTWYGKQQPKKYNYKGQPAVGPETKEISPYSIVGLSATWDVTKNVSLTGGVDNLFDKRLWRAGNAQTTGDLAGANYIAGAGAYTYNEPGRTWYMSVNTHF

| Compound | recognition by FepA (FepA) | uptake by E. coli (E. coli [1]) | accumulation in bacteria (E. coli [2]) |
| --- | --- | --- | --- |
| O=C(NCCN(CCNC(=O)c1cccc(O)c1O)CCNC(=O)c1cccc(O)c1O)c1cccc(O)c1O [TREN-CAM] | recognized by FepA | actively taken up by E. coli |  |
| OREGON GREEN |  |  | does not accumulate in bacteria |

From patent publication US10969387B2, “Compounds, complexes, and methods useful for detecting and/or treating bacterial pathogens” (REGENTS OF THE UNIVERSITY OF MINNESOTA, priority 2015, dated 2021)
